# The source made the active and inactive calls. No cut-off for these calls is given here.
# Tests used:
# [1] = Toxicity in male Sprague-Dawley rat assessed as average water intake measured per day at 1000 mg/kg, po administered as single dose measured on day 14 (Rvb =34 ml/day); assay type: organism-based; conditions: in vivo, 336 h, time 14 day
# [2] = Mutagenicity in Salmonella typhimurium TA102 assessed as number of revertants measured per plate at 10 to 1000 incubated for 48 hrs in presence of rat liver S9 fraction by plate incorporation assay; assay type: toxicity; conditions: salmonella enterica subsp. enterica serovar typhimurium, s9, 48 h, dose 10-1000 µg
# [3] = tested on: 3T3-L1; assay: Anti-adipogenic activity against mouse 3T3-L1 cells assessed as downregulation of FASN mRNA expression at 25 uM measured after 7 days by qRT-PCR analysis; assay type: functional, cell-based; conditions: time 7.0 day
# [4] = Toxicity in female Sprague-Dawley rat assessed as average water intake measured per day at 250 mg/kg, po administered as single dose measured on day 7 (Rvb =21 ml/day); assay type: organism-based; conditions: in vivo, 168 h, time 7 day
# [5] = tested on: 3T3-L1; assay: Anti-adipogenic activity against mouse 3T3-L1 cells assessed as downregulation of FABP4 mRNA expression at 25 uM measured after 7 days by qRT-PCR analysis; assay type: functional, cell-based; conditions: time 7.0 day
# [6] = Mutagenicity in Salmonella typhimurium TA100 assessed as number of revertants measured per plate at 10 to 1000 incubated for 48 hrs in absence of rat liver S9 fraction by plate incorporation assay; assay type: toxicity; conditions: salmonella enterica subsp. enterica serovar typhimurium, s9, 48 h, dose 10-1000 µg
# [7] = Toxicity in female Sprague-Dawley rat assessed as average water intake measured per day at 1000 mg/kg, po administered as single dose measured on day 14 (Rvb =26 ml/day); assay type: organism-based; conditions: in vivo, 336 h, time 14 day
# [8] = Toxicity in male Sprague-Dawley rat assessed as average water intake measured per day at 500 mg/kg, po administered as single dose measured on day 14 (Rvb =34 ml/day); assay type: organism-based; conditions: in vivo, 336 h, time 14 day
# [9] = Toxicity in male Sprague-Dawley rat assessed as effect on body weight at 250 mg/kg, po administered as single dose measured on day 7 (reference value: 217.38 +/- 11.38 g); assay type: organism-based; conditions: in vivo, 168 h, time 7 day
# [10] = Toxicity in female Sprague-Dawley rat assessed as average water intake measured per day at 1000 mg/kg, po administered as single dose measured on day 7 (Rvb =21 ml/day); assay type: organism-based; conditions: in vivo, 168 h, time 7 day
# [11] = Toxicity in male Sprague-Dawley rat assessed as average water intake measured per day at 250 mg/kg, po administered as single dose measured on day 14 (Rvb =34 ml/day); assay type: organism-based; conditions: in vivo, 336 h, time 14 day
# [12] = Toxicity in female Sprague-Dawley rat assessed as effect on body weight at 250 mg/kg, po administered as single dose measured on day 14 (Rvb =171.5 +/- 6.65 g); assay type: organism-based; conditions: in vivo, 336 h, time 14 day
# [13] = tested on: 3T3-L1; assay: Anti-adipogenic activity against mouse 3T3-L1 cells assessed as downregulation of CEBPD mRNA expression at 25 uM measured after 7 days by qRT-PCR analysis; assay type: functional, cell-based; conditions: time 7.0 day
# [14] = tested on: 3T3-L1; assay: Inhibition of H3K5 butyrylation in mouse 3T3-L1 cells by Immunoblotting analysis; assay type: functional, cell-based
# [15] = tested on: Mus musculus; assay: Anti-obesity activity in C57BL6/J mouse model of high fat diet-induced obesity assessed as inhibition of H4K5 butyrylation level in liver at 50 mg/kg by DAPI staining based immunofluorescence microscopic analysis; assay type: functional, organism-based
# [16] = Mutagenicity in Salmonella typhimurium TA97a assessed as number of revertants measured per plate at 10 to 1000 incubated for 48 hrs in absence of rat liver S9 fraction by plate incorporation assay; assay type: toxicity; conditions: salmonella enterica subsp. enterica serovar typhimurium, s9, 48 h, dose 10-1000 µg
# [17] = Toxicity in female Sprague-Dawley rat assessed as average water intake measured per day at 500 mg/kg, po administered as single dose measured on day 14 (Rvb =26 ml/day); assay type: organism-based; conditions: in vivo, 336 h, time 14 day
# [18] = Toxicity in female Sprague-Dawley rat assessed as average food intake at 500 mg/kg, po administered as single dose measured on day 14 (Rvb =15.95 g/day); assay type: organism-based; conditions: in vivo, 336 h, time 14 day
# [19] = Toxicity in female Sprague-Dawley rat assessed as effect on body weight at 1000 mg/kg, po administered as single dose measured on day 1 (Rvb =152.21 +/- 6.58 g); assay type: organism-based; conditions: in vivo, 24 h, time 1 day
# [20] = Mutagenicity in Salmonella typhimurium TA97a assessed as number of revertants measured per plate at 10 to 1000 incubated for 48 hrs in presence of rat liver S9 fraction by plate incorporation assay; assay type: toxicity; conditions: salmonella enterica subsp. enterica serovar typhimurium, s9, 48 h, dose 10-1000 µg
# [21] = Toxicity in female Sprague-Dawley rat assessed as average food intake at 1000 mg/kg, po administered as single dose measured on day 1 (Rvb =17.84 g/day); assay type: organism-based; conditions: in vivo, 24 h, time 1 day
# [22] = tested on: 3T3-L1; assay: Anti-adipogenic activity against mouse 3T3-L1 cells assessed as downregulation of LEP mRNA expression at 25 uM measured after 7 days by qRT-PCR analysis; assay type: functional, cell-based; conditions: time 7.0 day
# [23] = Toxicity in male Sprague-Dawley rat assessed as effect on body weight at 250 mg/kg, po administered as single dose measured on day 14 (Rvb =231.13 +/- 18.38 g); assay type: organism-based; conditions: in vivo, 336 h, time 14 day
# [24] = Toxicity in female Sprague-Dawley rat assessed as effect on body weight at 250 mg/kg, po administered as single dose measured on day 1 (Rvb =152.21 +/- 6.58 g); assay type: organism-based; conditions: in vivo, 24 h, time 1 day
# [25] = tested on: Mus musculus; assay: Anti-obesity activity in C57BL6/J mouse model of high fat diet-induced obesity assessed as reduction in hepatic steatosis at 50 mg/kg by hematoxylin and eosin staining based assay; assay type: functional, organism-based
# [26] = tested on: 3T3-L1; assay: Anti-adipogenic activity against mouse 3T3-L1 cells assessed as downregulation of ADIPOQ mRNA expression at 25 uM measured after 7 days by qRT-PCR analysis; assay type: functional, cell-based; conditions: time 7.0 day
# [27] = molecular target: Histone acetyltransferase p300 (Homo sapiens) (UniProt Q09472); assay: Inhibition of recombinant full length His-tagged EP300 catalyzed butyrylation (unknown origin) expressed in baculovirus infected Sf21insect cells using Histone H3 as substrate at 25 uM preincubated with compound for 10 mins followed by butyryl-CoA addition and measured after 10 mins by Western blot analysis; conditions: Sf21, time 20.0 min
# Histone acetyltransferase p300 (Homo sapiens), sequence (Q09472 whole entry): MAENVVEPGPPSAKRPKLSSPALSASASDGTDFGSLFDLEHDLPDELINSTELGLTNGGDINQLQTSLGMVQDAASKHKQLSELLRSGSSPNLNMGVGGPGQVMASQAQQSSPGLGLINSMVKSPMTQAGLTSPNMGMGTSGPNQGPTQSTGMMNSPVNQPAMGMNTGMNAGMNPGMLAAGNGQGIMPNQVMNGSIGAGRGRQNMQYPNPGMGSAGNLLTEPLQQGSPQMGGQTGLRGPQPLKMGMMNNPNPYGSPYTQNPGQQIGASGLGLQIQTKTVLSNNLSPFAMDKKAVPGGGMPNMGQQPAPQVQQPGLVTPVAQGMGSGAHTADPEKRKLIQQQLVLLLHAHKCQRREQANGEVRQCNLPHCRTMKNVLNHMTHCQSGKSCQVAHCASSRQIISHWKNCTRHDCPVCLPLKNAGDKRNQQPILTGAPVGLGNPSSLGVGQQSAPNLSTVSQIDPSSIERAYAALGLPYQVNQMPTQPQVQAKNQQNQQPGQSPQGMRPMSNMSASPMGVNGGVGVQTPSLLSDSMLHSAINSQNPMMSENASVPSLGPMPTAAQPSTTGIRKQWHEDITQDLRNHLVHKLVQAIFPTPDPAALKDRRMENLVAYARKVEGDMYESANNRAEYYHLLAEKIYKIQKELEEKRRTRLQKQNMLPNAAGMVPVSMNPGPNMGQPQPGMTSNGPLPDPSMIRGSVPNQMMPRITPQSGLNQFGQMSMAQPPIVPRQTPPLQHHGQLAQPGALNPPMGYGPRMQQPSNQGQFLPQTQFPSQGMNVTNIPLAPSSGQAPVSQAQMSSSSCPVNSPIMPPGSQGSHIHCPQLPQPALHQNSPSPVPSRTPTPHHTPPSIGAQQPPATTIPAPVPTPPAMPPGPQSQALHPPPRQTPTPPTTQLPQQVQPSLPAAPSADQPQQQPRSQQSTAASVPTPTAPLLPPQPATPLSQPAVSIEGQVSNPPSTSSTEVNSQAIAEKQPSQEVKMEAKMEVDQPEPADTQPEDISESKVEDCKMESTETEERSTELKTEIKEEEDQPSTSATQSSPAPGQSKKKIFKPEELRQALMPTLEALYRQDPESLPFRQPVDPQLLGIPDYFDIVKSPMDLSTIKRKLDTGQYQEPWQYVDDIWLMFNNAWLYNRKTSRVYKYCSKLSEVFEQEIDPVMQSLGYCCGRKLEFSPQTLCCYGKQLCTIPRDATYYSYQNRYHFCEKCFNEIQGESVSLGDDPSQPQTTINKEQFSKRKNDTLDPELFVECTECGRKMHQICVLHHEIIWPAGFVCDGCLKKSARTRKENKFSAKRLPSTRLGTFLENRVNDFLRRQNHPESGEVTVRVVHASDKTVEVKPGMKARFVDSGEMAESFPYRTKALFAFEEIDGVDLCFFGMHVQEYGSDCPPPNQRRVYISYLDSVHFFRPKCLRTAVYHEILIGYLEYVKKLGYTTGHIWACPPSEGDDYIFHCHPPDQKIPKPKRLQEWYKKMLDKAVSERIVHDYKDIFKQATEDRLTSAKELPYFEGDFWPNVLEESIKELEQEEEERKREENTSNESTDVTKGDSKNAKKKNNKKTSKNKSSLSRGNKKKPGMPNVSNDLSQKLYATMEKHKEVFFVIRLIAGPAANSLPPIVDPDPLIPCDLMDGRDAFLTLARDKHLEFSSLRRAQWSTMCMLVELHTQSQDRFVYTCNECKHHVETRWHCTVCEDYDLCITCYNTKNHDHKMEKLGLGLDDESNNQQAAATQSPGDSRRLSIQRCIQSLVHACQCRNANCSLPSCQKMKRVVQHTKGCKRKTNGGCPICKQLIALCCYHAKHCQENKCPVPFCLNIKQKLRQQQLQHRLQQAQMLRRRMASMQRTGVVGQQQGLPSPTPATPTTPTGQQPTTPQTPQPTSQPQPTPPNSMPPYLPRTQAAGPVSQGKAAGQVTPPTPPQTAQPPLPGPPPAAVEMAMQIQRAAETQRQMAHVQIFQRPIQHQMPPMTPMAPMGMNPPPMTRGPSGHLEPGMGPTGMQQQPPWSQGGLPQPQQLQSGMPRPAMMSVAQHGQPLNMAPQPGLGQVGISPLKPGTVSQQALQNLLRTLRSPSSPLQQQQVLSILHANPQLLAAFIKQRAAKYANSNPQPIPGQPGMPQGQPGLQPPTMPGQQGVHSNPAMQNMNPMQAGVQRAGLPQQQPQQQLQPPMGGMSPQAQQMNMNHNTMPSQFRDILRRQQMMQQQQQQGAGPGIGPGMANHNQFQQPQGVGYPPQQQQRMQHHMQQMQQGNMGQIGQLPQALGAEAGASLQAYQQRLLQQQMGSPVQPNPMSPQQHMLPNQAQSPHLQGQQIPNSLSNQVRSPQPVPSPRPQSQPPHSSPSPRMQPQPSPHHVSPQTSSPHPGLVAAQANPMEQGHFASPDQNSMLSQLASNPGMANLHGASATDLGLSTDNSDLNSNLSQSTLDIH
# [28] = Toxicity in male Sprague-Dawley rat assessed as effect on body weight at 250 mg/kg, po administered as single dose measured on day 1 (reference value: 174.75 +/- 7.61 g); assay type: organism-based; conditions: in vivo, 24 h, time 1 day
# [29] = Toxicity in male Sprague-Dawley rat assessed as average food intake at 500 mg/kg, po administered as single dose measured on day 1 (Rvb =20.38 g/day); assay type: organism-based; conditions: in vivo, 24 h, time 1 day
# [30] = Mutagenicity in Salmonella typhimurium TA100 assessed as number of revertants measured per plate at 10 to 1000 incubated for 48 hrs in presence of rat liver S9 fraction by plate incorporation assay; assay type: toxicity; conditions: salmonella enterica subsp. enterica serovar typhimurium, s9, 48 h, dose 10-1000 µg
# [31] = Toxicity in female Sprague-Dawley rat assessed as average water intake measured per day at 250 mg/kg, po administered as single dose measured on day 14 (Rvb =26 ml/day); assay type: organism-based; conditions: in vivo, 336 h, time 14 day
# [32] = Toxicity in female Sprague-Dawley rat assessed as average food intake at 1000 mg/kg, po administered as single dose measured on day 7 (Rvb =15.65 g/day); assay type: organism-based; conditions: in vivo, 168 h, time 7 day
# [33] = tested on: Mus musculus; assay: Anti-obesity activity in C57BL6/J mouse model of high fat diet-induced obesity assessed as reduction in epididymal fat pad weight at 50 mg/kg; assay type: functional, organism-based
smiles,measurement,setting,value
COc1ccc(C(=O)C2=C3OC(C)(C)[C@@H](CC=C(C)C)C[C@@]34C[C@@H](CC=C(C)C)C(C)(C)[C@](CC=C(C)C)(C2=O)C4=O)cc1OC,Activity,[1],38 mL
same,Activity,[2],Non-Toxic
same,Activity,[3],Active
same,Activity,[4],21 mL
same,Activity,[5],Active
same,Activity,[6],Non-Toxic
same,Activity,[7],32 mL
same,Activity,[8],40 mL
same,Activity,[9],216.62 g
same,Activity,[10],22 mL
same,Activity,[11],34 mL
same,Activity,[12],176.35 g
same,Activity,[13],Active
same,inhibition,[14],Active
same,Activity,[15],Active
same,Activity,[16],Non-Toxic
same,Activity,[17],26 mL
same,Activity,[18],17.09 g/day
same,Activity,[19],153.81 g
same,Activity,[20],Non-Toxic
same,Activity,[21],18.17 g/day
same,Activity,[22],Active
same,Activity,[23],244.21 g
same,Activity,[24],151.99 g
same,Activity,[25],Active
same,Activity,[26],Active
same,inhibition,[27],Active
same,Activity,[28],171.94 g
same,Activity,[29],20.99 g/day
same,Activity,[30],Non-Toxic
same,Activity,[31],24 mL
same,Activity,[32],17.82 g/day
same,Activity,[33],Active
